Source: US20050250836A1, “Inhibitors of checkpoint kinases (Wee1 and Chk1)” (Pfizer Inc, priority 2004, published 2005)

melting point	SMILES
235 to 237 °C	CCOC(=O)c1cc2c3c(c(-c4ccccc4Cl)cc2n1CCCOC)C(=O)NC3=O [Example 46, 4-(2-Chlorophenyl)-6-(3-methoxypropyl)-1,3-dioxo-1,2,3,6-tetrahydro-2,6-diaza-as-indacene-7-carboxylic acid ethyl ester]
272 to 274 °C	CSc1ccccc1-c1cc2c(ccn2C)c2c1C(=O)NC2=O [Example 134 (sulfide), 6-Methyl-4-(2-methylsulfanylphenyl)-6H-2,6-diaza-as-indacene-1,3-dione]
243 to 245 °C	COc1ccccc1-c1cc2c(ccn2C)c2c1C(=O)NC2=O [Example 27, 4-(2-Methoxyphenyl)-6-methyl-6H-2,6-diaza-as-indacene-1,3-dione]
158 to 161 °C	O=C1NC(=O)c2c1c(-c1ccccc1Cl)cc1c2c(Br)cn1CCCN1CCCC1 [Example 137, 8-Bromo-4-(2-chlorophenyl)-6-(3-pyrrolidin-1-ylpropyl)-6H-2,6-diaza-as-indacene-1,3-dione]
260 to 261 °C	COCCCn1c(C(N)=O)cc2c3c(c(-c4ccccc4Cl)cc21)C(=O)NC3=O [Example 51, 4-(2-Chlorophenyl)-6-(3-methoxypropyl)-1,3-dioxo-1,2,3,6-tetrahydro-2,6-diaza-as-indacene-7-carboxylic acid amide]
294 to 295 °C	O=C1NC(=O)c2c1c(-c1ccccc1Cl)cc1c2cc(C(=O)O)n1CCCBr [Example 49, 6-(3-Bromopropyl)-4-(2-chlorophenyl)-1,3-dioxo-1,2,3,6-tetrahydro-2,6-diaza-as-indacene-7-carboxylic acid]
187 to 189 °C	COCCCn1c(CO)cc2c3c(c(-c4ccccc4Cl)cc21)C(=O)NC3=O [Example 59, 4-(2-Chlorophenyl)-7-hydroxymethyl-6-(3-methoxypropyl)-6H-2,6-diaza-as-indacene-1,3-dione]
225 to 229 °C	Cn1cc(CCO)c2c3c(c(-c4ccccc4Cl)cc21)C(=O)NC3=O [Example 147, 4-(2-Chlorophenyl)-8-(2-hydroxyethyl)-6-methyl-6H-2,6-diaza-as-indacene-1,3-dione]
242 °C (dec.)	Cn1cc(Br)c2c3c(c(I)cc21)C(=O)NC3=O [Example 132, 8-Bromo-4-iodo-6-methyl-6H-2,6-diaza-as-indacene-1,3-dione]
173 °C	CCOCCOCCn1ccc2c3c(c(-c4ccccc4Cl)cc21)C(=O)NC3=O [Example 35, 4-(2-Chlorophenyl)-6-[2-(2-ethoxyethoxy)ethyl]-6H-2,6-diaza-as-indacene-1,3-dione]
206 to 207 °C	COCCCn1c(C=O)c(Br)c2c3c(c(-c4ccccc4Cl)cc21)C(=O)NC3=O [Example 61, 8-Bromo-4-(2-chlorophenyl)-6-(3-methoxypropyl)-1,3-dioxo-1,2,3,6-tetrahydro-2,6-diaza-as-indacene-7-carbaldehyde]
216 to 220 °C	COc1ccccc1-c1cc2c(c(Br)cn2C)c2c1C(=O)NC2=O [Example 28, 8-Bromo-4-(2-methoxyphenyl)-6-methyl-6H-2,6-diaza-as-indacene-1,3-dione]
171 to 172 °C	COCCCn1ccc2c3c(c(-c4ccccc4Cl)cc21)C(=O)NC3=O [Example 43, 4-(2-Chlorophenyl)-6-(3-methoxypropyl)-6H-2,6-diaza-as-indacene-1,3-dione]
182 to 186 °C	O=C(O)CCn1cc(Br)c2c3c(c(-c4ccccc4Cl)cc21)C(=O)NC3=O [Example 165, 3-[8-Bromo-4-(2-chlorophenyl)-1,3-dioxo-2,3-dihydro-1H-2,6-diaza-as-indacen-6-yl]propionic acid]
125 to 129 °C	C#Cc1cn(C)c2cc(-c3ccccc3Cl)c3c(c12)C(=O)NC3=O [Example 149, 4-(2-Chlorophenyl)-8-ethynyl-6-methyl-6H-2,6-diaza-as-indacene-1,3-dione]
236 to 239 °C	C[C@@H]1CN(CCCn2cc(Br)c3c4c(c(-c5ccccc5Cl)cc32)C(=O)NC4=O)C[C@H](C)N1 [Example 135, 8-Bromo-4-(2-chlorophenyl)-6-[3-(cis-3,5-dimethylpiperazin-1-yl)propyl]-6H-2,6-diaza-as-indacene-1,3-dione]
154 to 157 °C	COc1ccccc1-c1cc2c(c(C#CCO)cn2C)c2c1C(=O)NC2=O [Example 150, 8-(3-Hydroxyprop-1-ynyl)-4-(2-methoxyphenyl)-6-methyl-6H-2,6-diaza-as-indacene-1,3-dione]
249 to 251 °C	CCOC(=O)c1cc2c3c(c(-c4ccccc4Cl)cc2n1CCCO)C(=O)NC3=O [Example 48 (ii), 4-(2-Chlorophenyl)-6-(3-hydroxypropyl)-1,3-dioxo-1,2,3,6-tetrahydro-2,6-diaza-as-indacene-7-carboxylic acid ethyl ester]
203 to 205 °C	O=C1NC(=O)c2c1c(-c1ccccc1Cl)cc1c2c(Br)c(CO)n1CCCO [Example 63, 8-Bromo-4-(2-chlorophenyl)-7-hydroxymethyl-6-(3-hydroxypropyl)-6H-2,6-diaza-as-indacene-1,3-dione]
155 to 159 °C	CN(C)Cc1cn(C)c2cc(-c3ccccc3Cl)c3c(c12)C(=O)NC3=O [Example 167, 4-(2-Chlorophenyl)-8-dimethylaminomethyl-6-methyl-6H-2,6-diaza-as-indacene-1,3-dione]
200 to 205 °C	C=Cc1cn(C)c2cc(-c3ccccc3Cl)c3c(c12)C(=O)NC3=O [Example 145, 4-(2-Chlorophenyl)-6-methyl-8-vinyl-6H-2,6-diaza-as-indacene-1,3-dione]
150 to 152 °C	CN1CCN(CCCn2cc(Br)c3c4c(c(-c5ccccc5Cl)cc32)C(=O)NC4=O)CC1 [Example 138, 8-Bromo-4-(2-chlorophenyl)-6-[3-(4-methylpiperazin-1-yl)-propyl]-6H-2,6-diaza-as-indacene-1,3-dione]
117 to 120 °C	O=C1NC(=O)c2c1c(-c1ccccc1Cl)cc1c2c(Br)cn1CCCN1CCOCC1 [Example 139, 8-Bromo-4-(2-chlorophenyl)-6-(3-morpholin-4-ylpropyl)-6H-2,6-diaza-as-indacene-1,3-dione]
272 to 274 °C	COCCCn1c(C(=O)O)cc2c3c(c(-c4ccccc4Cl)cc21)C(=O)NC3=O [Example 47, 4-(2-Chlorophenyl)-6-(3-methoxypropyl)-1,3-dioxo-1,2,3,6-tetrahydro-2,6-diaza-as-indacene-7-carboxylic acid]
267 to 271 °C	COc1ccccc1-c1cc2c(c(Cl)cn2C)c2c1C(=O)NC2=O [Example 30, 8-Chloro-4-(2-methoxyphenyl)-6-methyl-6H-2,6-diaza-as-indacene-1,3-dione]
214 to 215 °C	COCCCn1c(CO)c(Cl)c2c3c(c(-c4ccccc4Cl)cc21)C(=O)NC3=O [Example 67, 8-Chloro-4-(2-chlorophenyl)-7-hydroxymethyl-6-(3-methoxypropyl)-6H-2,6-diaza-as-indacene-1,3-dione]
208 to 209 °C	O=C1NC(=O)c2c1c(-c1ccccc1Cl)cc1c2ccn1CCN1CCCC1 [Example 142, 4-(2-Chlorophenyl)-6-(2-pyrrolidin-1-ylethyl)-6H-2,6-diaza-as-indacene-1,3-dione]
